# Reference: patent publication US12344603B2 (Genentech, Inc., priority 2020, dated 2025)
# Target: IRE1α (Homo sapiens (Human), UniProt O75460, D688N)
# Assay: IRE1α TR-FRET competition binding assay (IRE1α HTRF)
# Settings: TR-FRET competition binding to kinase domain of IRE1α
# In short: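 Competition of compounds against an Alexa fluor 647 ATP-site probe (2 nM final) for the His-tagged kinase domain (0.25 nM final), detected via 2 nM Eu anti-His antibody by TR-FRET, 665 and 615 nm emission. Protein–antibody premix 1 h, 4° C; reaction 1 h, room temperature, pH 7.5 HEPES buffer.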
# Sequence of IRE1α (O75460 547-977 D688N): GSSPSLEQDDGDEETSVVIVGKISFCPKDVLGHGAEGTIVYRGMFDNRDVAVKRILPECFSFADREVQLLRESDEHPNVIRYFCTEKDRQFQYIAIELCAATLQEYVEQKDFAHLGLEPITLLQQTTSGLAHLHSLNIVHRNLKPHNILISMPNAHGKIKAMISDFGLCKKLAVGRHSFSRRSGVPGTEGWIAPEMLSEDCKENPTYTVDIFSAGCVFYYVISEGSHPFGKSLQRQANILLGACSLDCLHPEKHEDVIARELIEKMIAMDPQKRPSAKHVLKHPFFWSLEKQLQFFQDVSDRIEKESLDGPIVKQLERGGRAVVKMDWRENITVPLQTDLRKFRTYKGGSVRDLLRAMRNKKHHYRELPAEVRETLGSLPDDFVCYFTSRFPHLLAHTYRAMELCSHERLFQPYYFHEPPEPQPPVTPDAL
smiles,measurement,value
"CC(C)n1c(=O)c(-c2cc(F)c(NS(=O)(=O)Cc3ccn(C)n3)c(F)c2F)cc2cnc(N[C@@H]3CNC[C@@H](F)C3)nc21 [Compound 38, 1-(1-Methyl-1H-pyrazol-3-yl)-N-(2,3,6-trifluoro-4-(2-(((3S,5S)-5-fluoropiperidin-3-yl)amino)-8-isopropyl-7-oxo-7,8-dihydropyrido[2,3-d]pyrimidin-6-yl)phenyl)methanesulfonamide]",IC50,0.39 nM
"CC(C)n1c(=O)c(-c2cc(F)c(NS(=O)(=O)Cc3ccccc3)c(F)c2)cc2cnc(N[C@H]3CC[C@H](N(C)C)CC3)nc21 [Compound 117, N-(4-(2-(((1r,4r)-4-(Dimethylamino)cyclohexyl)amino)-8-isopropyl-7-oxo-7,8-dihydropyrido[2,3-d]pyrimidin-6-yl)-2,6-difluorophenyl)-1-phenylmethanesulfonamide]",IC50,0.18 nM
"CCn1c(=O)c(-c2ccc(NS(=O)(=O)Cc3ccccc3)c(F)c2F)cc2cnc(N[C@H]3CCCNC3)nc21 [Compound 3, (S)—N-(4-(8-Ethyl-7-oxo-2-(piperidin-3-ylamino)-7,8-dihydropyrido[2,3-d]pyrimidin-6-yl)-2,3-difluorophenyl)-1-phenylmethanesulfonamide]",IC50,0.68 nM
"CC(C)n1c(=O)c(-c2ccc(NS(=O)(=O)c3ccccc3)nc2)cc2cnc(N[C@H]3CC[C@H](N(C)CCF)CC3)nc21 [Compound 144, N-(5-(2-(((1r,4r)-4-((2-Fluoroethyl)(methyl)amino)cyclohexyl)amino)-8-isopropyl-7-oxo-7,8-dihydropyrido[2,3-d]pyrimidin-6-yl)pyridin-2-yl)benzenesulfonamide]",IC50,0.18 nM
"CC(C)n1c(=O)c(-c2ccc(NS(=O)(=O)CCC(F)(F)F)c(F)c2)cc2cnc(N[C@H]3CC[C@H](N(C)C4COC4)CC3)nc21 [Compound 206, 3,3,3-Trifluoro-N-(2-fluoro-4-(8-isopropyl-2-(((1,4-trans)-4-(methyl(oxetan-3-yl)amino)cyclohexyl)amino)-7-oxo-7,8-dihydropyrido[2,3-d]pyrimidin-6-yl)phenyl)propane-1-sulfonamide]",IC50,0.17 nM
"CCn1c(=O)c(-c2cc(F)c(NS(=O)(=O)CC3(F)CC3)c(F)c2F)cc2cnc(N[C@@H]3CNC[C@@H](F)C3)nc21 [Compound 48, N-(4-(8-ethyl-2-(((3S,5S)-5-fluoropiperidin-3-yl)amino)-7-oxo-7,8-dihydropyrido[2,3-d]pyrimidin-6-yl)-2,3,6-trifluorophenyl)-1-(1-fluorocyclopropyl)methanesulfonamide]",IC50,28 nM
"CC(C)n1c(=O)c(-c2ccc(NS(=O)(=O)Cc3ccccc3)c(F)c2)nc2cnc(N[C@H]3CC[C@H](N(C)C)[C@@H](F)C3)nc21 (stereo in doubt) [Compound 192A, N-(4-(2-((4-(Dimethylamino)-3-fluorocyclohexyl)amino)-8-isopropyl-7-oxo-7,8-dihydropteridin-6-yl)-2-fluorophenyl)-1-phenylmethanesulfonamide]",IC50,0.11 nM
"CCCS(=O)(=O)Nc1c(F)cc(-c2nc3cnc(N[C@H]4CC[C@H](N(C)C)CC4)nc3n(C(C)C)c2=O)cc1F [Example 242, N-[4-[2-[[4-(Dimethylamino)cyclohexyl]amino]-8-isopropyl-7-oxo-pteridin-6-yl]-2,6-difluoro-phenyl]propane-1-sulfonamide]",IC50,0.1 nM
"COc1nc(NS(=O)(=O)c2ccccc2Cl)ccc1-c1nc2cnc(N[C@H]3CC[C@H](N(C)C)CC3)nc2n(C(C)C)c1=O [Compound 173, 2-Chloro-N-(5-(2-(((1r,4r)-4-(dimethylamino)cyclohexyl)amino)-8-isopropyl-7-oxo-7,8-dihydropteridin-6-yl)-6-methoxypyridin-2-yl)benzenesulfonamide]",IC50,0.27 nM
"CC(C)n1c(=O)c(-c2ccc(NS(=O)(=O)CCC(C)(F)F)c(F)c2)nc2cnc(N[C@@H]3CNC[C@@H](F)C3)nc21 [Compound 84, 3,3-Difluoro-N-[2-fluoro-4-[2-[[(3S,5S)-5-fluoro-3-piperidyl]amino]-8-isopropyl-7-oxo-pteridin-6-yl]phenyl]butane-1-sulfonamide]",IC50,0.4 nM
"CC(C)n1c(=O)c(-c2ccc(NS(=O)(=O)CCC(F)(F)F)c(F)c2)nc2cnc(N[C@H]3CC[C@H](N(C)C)[C@@H](F)C3)nc21 (stereo in doubt) [Compound 179A, N-(4-(2-((4-(Dimethylamino)-3-fluorocyclohexyl)amino)-8-isopropyl-7-oxo-7,8-dihydropteridin-6-yl)-2-fluorophenyl)-3,3,3-trifluoropropane-1-sulfonamide]",IC50,0.22 nM
"CC(C)n1c(=O)c(-c2ccc(NS(=O)(=O)[C@@H]3C[C@H]3c3ccccc3)c(F)c2)nc2cnc(N[C@H]3CC[C@H](N(C)C)CC3)nc21 [Example 274, (1R,2S)—N-(4-(2-(((1r,4r)-4-(Dimethylamino)cyclohexyl)amino)-8-isopropyl-7-oxo-7,8-dihydropteridin-6-yl)-2-fluorophenyl)-2-phenylcyclopropane-1-sulfonamide]",IC50,0.2 nM
"CC(C)n1c(=O)c(-c2cc(F)c(NS(=O)(=O)CCC(F)(F)F)c(F)c2)cc2cnc(NC3CC[C@H](N(C)C)C(F)C3)nc21 (single isomer, unassigned) [Compound 118B, N-(4-(2-((4-(Dimethylamino)-3-fluorocyclohexyl)amino)-8-isopropyl-7-oxo-7,8-dihydropyrido[2,3-d]pyrimidin-6-yl)-2,6-difluorophenyl)-3,3,3-trifluoropropane-1-sulfonamide]",IC50,0.32 nM
"CC(C)n1c(=O)c(-c2cc(F)c(NS(=O)(=O)CCC(F)(F)F)c(F)c2)nc2cnc(N[C@@H]3CC[C@@H](N(C)C)[C@H](F)C3)nc21 (stereo in doubt) [Compound 168B, N-(4-(2-((4-(Dimethylamino)-3-fluorocyclohexyl)amino)-8-isopropyl-7-oxo-7,8-dihydropteridin-6-yl)-2,6-difluorophenyl)-3,3,3-trifluoropropane-1-sulfonamide]",IC50,0.23 nM
"Cc1nc(NS(=O)(=O)c2ccccc2Cl)ccc1-c1nc2cnc(N[C@H]3CC[C@H](N(C)CCF)CC3)nc2n(C(C)C)c1=O [Compound 195, 2-Chloro-N-(5-(2-(((1r,4r)-4-((2-fluoroethyl)(methyl)amino)cyclohexyl)amino)-8-isopropyl-7-oxo-7,8-dihydropteridin-6-yl)-6-methylpyridin-2-yl)benzenesulfonamide]",IC50,0.29 nM
"CC(C)n1c(=O)c(-c2cc(F)c(NC(=O)C3CC3F)c(F)c2F)cc2cnc(N[C@H]3CC[C@H](N(C)C)CC3)nc21 (single isomer, unassigned) [Compound 98B, N-(4-(2-(((1r,4r)-4-(Dimethylamino)cyclohexyl)amino)-8-isopropyl-7-oxo-7,8-dihydropyrido[2,3-d]pyrimidin-6-yl)-2,3,6-trifluorophenyl)-2-fluorocyclopropane-1-carboxamide]",IC50,2.2 nM
CC(C)n1c(=O)c(-c2ccc(NS(=O)(=O)CCC(F)(F)F)nc2)cc2cnc(N[C@H]3CC[C@H](N(C)C)[C@H](F)C3)nc21 [Example 224],IC50,0.2 nM
"CCCS(=O)(=O)Nc1c(F)ccc2c(-c3cc4cnc(N[C@H]5CCCNC5)nc4n(C)c3=O)cccc12 [Compound 8, (S)—N-(2-Fluoro-5-(8-methyl-7-oxo-2-(piperidin-3-ylamino)-7,8-dihydropyrido[2,3-d]pyrimidin-6-yl)naphthalen-1-yl)propane-1-sulfonamide]",IC50,36 nM
